Legend:
Format in all cases: biochemical
Cannabinoid receptor 2 = Cannabinoid receptor 2 (Homo sapiens, UniProt P34972); test: Receptor-based pharmacological activity, agonist; conditions: for EC50: read-out: RC50 (EC50); for Pharmacological activity at cannabinoid receptor 2: at approximately 1 to 20 μM
Method: (§1) Methods for this study have been previously described (Venn-Watson, S., Lumpkin, R., Dennis, E. A. Efficacy of dietary odd-chain saturated fatty acid pentadecanoic acid parallels broad associated health benefits in humans: could it be essential? Sci Rep 10:8161 (2020)). Significant activities of pentadecanoylcarnitine were those tagged as having maximum pharmacological activities that were greater than or equal to 70% that of the internal control between the concentrations of 1 to 20 μM. Significant pharmacological activities caused by pentadecanoylcarnitine were compared with results from the same assays using pentadecanoic acid (C15:0).

5-HT1B receptor = 5-HT1B receptor (Homo sapiens, UniProt P28222); test: Receptor-based pharmacological activity, agonist; conditions: for EC50: read-out: RC50 (EC50)
Sequence of 5-HT1B receptor (P28222 whole entry): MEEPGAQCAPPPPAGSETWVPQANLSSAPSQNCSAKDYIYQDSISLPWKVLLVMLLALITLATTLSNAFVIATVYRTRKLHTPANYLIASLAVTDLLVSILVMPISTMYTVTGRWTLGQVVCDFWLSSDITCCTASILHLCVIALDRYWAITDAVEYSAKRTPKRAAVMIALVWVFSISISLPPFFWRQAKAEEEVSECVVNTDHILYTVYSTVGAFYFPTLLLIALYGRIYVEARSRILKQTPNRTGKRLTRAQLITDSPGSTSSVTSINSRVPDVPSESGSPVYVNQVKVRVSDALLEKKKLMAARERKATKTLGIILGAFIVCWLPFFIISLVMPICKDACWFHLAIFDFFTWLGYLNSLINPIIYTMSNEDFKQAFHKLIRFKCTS
Method: as §1

Cannabinoid receptor 1 = Cannabinoid receptor 1 (Homo sapiens, UniProt P21554); test: Receptor-based pharmacological activity, agonist; conditions: for EC50: read-out: RC50 (EC50); for Pharmacological activity at cannabinoid receptor 1: at approximately 1 to 20 μM
Sequence of Cannabinoid receptor 1 (P21554 whole entry, species assumed): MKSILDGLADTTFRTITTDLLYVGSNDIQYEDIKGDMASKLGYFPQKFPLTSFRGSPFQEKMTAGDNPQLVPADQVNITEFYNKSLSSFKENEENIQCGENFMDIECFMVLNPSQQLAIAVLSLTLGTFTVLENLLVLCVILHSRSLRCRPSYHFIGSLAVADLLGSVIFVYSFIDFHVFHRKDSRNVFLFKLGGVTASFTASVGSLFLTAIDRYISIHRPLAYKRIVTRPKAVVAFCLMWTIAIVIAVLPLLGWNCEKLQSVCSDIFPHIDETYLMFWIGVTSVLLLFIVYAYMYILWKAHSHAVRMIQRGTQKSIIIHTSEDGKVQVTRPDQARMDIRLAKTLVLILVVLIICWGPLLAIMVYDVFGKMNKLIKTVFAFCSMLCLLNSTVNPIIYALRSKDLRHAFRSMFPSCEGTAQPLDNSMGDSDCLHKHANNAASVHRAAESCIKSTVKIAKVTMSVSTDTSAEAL
Method: as §1

5-HT1A receptor = target: T1, 5-HT1A receptor (Homo sapiens, UniProt P08908); test: Receptor-based pharmacological activity, agonist; conditions: for EC50: read-out: RC50 (EC50)
T1 sequence (P08908 1-422): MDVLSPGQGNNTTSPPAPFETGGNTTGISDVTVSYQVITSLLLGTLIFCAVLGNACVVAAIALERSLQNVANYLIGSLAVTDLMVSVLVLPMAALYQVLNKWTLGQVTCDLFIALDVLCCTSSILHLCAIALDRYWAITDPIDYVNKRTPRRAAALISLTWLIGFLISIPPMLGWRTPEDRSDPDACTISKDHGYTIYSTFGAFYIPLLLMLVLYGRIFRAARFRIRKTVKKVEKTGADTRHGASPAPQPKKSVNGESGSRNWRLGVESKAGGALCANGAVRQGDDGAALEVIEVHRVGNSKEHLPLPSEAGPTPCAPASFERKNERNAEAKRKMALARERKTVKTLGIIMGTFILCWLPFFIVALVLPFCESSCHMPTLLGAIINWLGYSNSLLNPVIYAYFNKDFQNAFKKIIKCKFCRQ
Method: as §1

α-2A adrenergic receptor = target: T2, α-2A adrenergic receptor (Homo sapiens, UniProt P08913); test: Receptor-based pharmacological activity, agonist; conditions: for EC50: read-out: RC50 (EC50)
T2 sequence (P08913 1-465): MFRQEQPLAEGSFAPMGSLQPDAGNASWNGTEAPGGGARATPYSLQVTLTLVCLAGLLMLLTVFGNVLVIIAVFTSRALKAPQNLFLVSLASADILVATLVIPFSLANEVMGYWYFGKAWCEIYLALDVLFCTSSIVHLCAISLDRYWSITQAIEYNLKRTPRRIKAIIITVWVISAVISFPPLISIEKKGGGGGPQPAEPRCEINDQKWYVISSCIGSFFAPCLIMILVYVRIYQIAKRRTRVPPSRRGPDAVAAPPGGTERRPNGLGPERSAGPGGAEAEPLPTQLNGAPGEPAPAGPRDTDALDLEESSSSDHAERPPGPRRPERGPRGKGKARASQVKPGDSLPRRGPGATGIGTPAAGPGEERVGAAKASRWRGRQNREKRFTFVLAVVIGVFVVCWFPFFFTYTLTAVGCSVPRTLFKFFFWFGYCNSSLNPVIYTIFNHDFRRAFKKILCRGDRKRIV
Method: as §1

[1] = target: T3, Cholinergic receptor muscarinic 2 (Homo sapiens, UniProt P08172); test: Receptor-based pharmacological activity, agonist; conditions: positive control Acetylcholine chloride; for EC50: read-out: RC50 (EC50)
T3 sequence (P08172 1-466): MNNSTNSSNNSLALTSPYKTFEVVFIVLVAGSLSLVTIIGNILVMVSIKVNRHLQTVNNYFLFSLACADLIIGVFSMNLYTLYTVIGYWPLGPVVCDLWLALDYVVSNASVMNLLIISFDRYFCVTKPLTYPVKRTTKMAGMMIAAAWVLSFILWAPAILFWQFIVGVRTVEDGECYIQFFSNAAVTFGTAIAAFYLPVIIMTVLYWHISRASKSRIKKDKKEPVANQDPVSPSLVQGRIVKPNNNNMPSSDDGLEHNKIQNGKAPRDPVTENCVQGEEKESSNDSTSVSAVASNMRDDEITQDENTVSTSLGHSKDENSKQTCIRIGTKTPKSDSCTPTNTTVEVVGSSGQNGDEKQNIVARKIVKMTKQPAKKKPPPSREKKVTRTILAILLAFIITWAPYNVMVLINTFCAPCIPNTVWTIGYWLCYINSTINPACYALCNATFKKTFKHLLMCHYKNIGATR
Method: as §1

Dopamine receptor D1 = Dopamine receptor D1 (Homo sapiens, UniProt P21728); test: Receptor-based pharmacological activity, antagonist; conditions: for IC50: read-out: RC50 (IC50)
Sequence of Dopamine receptor D1 (P21728 whole entry, species assumed): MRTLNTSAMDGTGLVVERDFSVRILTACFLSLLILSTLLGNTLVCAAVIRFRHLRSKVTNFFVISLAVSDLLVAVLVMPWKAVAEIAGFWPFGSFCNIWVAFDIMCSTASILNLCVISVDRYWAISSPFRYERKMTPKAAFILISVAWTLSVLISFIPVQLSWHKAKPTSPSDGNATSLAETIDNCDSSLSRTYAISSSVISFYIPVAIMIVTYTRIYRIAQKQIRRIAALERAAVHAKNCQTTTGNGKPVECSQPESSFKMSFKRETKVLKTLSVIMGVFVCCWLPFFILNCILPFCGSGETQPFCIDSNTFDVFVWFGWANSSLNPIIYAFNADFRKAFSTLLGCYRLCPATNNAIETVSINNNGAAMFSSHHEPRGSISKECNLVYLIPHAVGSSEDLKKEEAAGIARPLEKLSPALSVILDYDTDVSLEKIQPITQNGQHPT
Method: as §1

Histamine H1 receptor = Histamine H1 receptor (Homo sapiens, UniProt P35367); test: as above; conditions: for IC50: read-out: RC50 (IC50)
Sequence of Histamine H1 receptor (P35367 whole entry): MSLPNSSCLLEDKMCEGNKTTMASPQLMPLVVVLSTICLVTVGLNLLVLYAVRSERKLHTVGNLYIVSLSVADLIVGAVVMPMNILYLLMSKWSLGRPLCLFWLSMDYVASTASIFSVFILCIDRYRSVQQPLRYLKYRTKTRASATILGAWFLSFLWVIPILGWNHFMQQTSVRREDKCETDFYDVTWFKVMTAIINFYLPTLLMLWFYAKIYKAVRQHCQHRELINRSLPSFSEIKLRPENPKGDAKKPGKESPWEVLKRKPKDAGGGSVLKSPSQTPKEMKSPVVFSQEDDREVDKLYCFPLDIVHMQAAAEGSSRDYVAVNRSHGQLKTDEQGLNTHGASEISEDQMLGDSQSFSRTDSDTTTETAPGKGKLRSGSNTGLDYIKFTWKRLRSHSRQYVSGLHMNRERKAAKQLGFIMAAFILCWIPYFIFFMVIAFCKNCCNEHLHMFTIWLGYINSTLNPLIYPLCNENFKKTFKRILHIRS
Method: as §1

Histamine H2 receptor = Histamine H2 receptor (Homo sapiens, UniProt P25021); test: as above; conditions: for IC50: read-out: RC50 (IC50)
Sequence of Histamine H2 receptor (P25021 whole entry): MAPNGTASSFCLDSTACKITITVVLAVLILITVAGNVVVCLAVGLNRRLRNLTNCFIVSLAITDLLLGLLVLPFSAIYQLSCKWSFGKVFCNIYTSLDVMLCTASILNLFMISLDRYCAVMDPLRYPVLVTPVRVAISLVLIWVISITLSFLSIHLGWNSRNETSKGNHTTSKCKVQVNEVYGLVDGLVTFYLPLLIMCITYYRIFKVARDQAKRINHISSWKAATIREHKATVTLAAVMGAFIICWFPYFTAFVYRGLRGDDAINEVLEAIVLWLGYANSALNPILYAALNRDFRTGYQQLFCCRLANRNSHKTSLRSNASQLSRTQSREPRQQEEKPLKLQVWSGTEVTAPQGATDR
Method: as §1

[2] = target: T4, Cholinergic receptor muscarinic 1 (Homo sapiens, UniProt P11229); test: as above; conditions: for IC50: read-out: RC50 (IC50)
T4 sequence (P11229 1-460): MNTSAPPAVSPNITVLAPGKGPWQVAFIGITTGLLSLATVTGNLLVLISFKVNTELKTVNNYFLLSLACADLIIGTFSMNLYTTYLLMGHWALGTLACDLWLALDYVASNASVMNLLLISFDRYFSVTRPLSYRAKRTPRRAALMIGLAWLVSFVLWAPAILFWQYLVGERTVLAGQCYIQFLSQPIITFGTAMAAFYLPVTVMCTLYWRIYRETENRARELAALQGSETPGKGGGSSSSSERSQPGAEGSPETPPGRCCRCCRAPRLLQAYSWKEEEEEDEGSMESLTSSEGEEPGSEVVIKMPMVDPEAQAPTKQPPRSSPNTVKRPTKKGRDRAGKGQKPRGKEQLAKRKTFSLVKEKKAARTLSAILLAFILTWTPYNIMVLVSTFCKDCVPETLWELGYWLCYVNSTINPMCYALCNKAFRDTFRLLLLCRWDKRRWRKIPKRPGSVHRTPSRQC
Method: as §1

[3] = Agonist, positive control CP 55940
[4] = Agonist, positive control Serotonin hydrochloride, 1 to 20 μM, read-out: Max Response (%) Compared to Positive Control
[5] = Agonist, positive control Serotonin hydrochloride
[6] = Agonist, positive control UK 14304
[7] = Antagonist, positive control SCH 39166
[8] = Antagonist, positive control Mepyramine
[9] = Antagonist, positive control Tiotidine
[10] = Antagonist, positive control Atropine
[11] = Agonist, positive control CP 55940, 1 to 20 μM
[12] = listed as pentadecenoyl carnitine
[13] = Agonist, positive control Serotonin hydrochloride, 1 to 20 μM

Sequence of Cannabinoid receptor 2 (P34972 whole entry): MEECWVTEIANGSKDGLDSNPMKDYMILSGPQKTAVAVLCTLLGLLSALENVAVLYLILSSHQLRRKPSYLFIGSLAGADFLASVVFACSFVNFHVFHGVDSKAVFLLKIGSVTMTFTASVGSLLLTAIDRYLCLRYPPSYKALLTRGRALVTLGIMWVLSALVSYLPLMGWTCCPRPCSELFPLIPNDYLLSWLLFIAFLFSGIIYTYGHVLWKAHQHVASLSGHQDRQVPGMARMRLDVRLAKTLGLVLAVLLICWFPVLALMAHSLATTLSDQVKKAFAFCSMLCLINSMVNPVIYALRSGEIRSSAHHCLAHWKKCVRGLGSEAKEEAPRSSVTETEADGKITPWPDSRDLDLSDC

CCCCCCCCCCCCCCC(=O)O [Pentadecanoic acid (C15:0), Pentadecanoic acid]
Emax (Cannabinoid receptor 2; Agonist, positive control CP 55940, 1 to 20 μM, read-out: Max Response (%) Compared to Positive Control): 22%
EC50 (Cannabinoid receptor 2; [3]): > 20 µM
Emax (5-HT1B receptor; [4]): 0%
EC50 (5-HT1B receptor; [5]): > 20 µM
EC50 (Cannabinoid receptor 1; [3]): > 20 µM
Emax (Cannabinoid receptor 1; read-out: Max Response (%) Compared to Positive Control): 25%
Emax (5-HT1A receptor; [4]): 0%
EC50 (5-HT1A receptor; [5]): > 20 µM
Emax (α-2A adrenergic receptor; Agonist, positive control UK 14304, 1 to 20 μM, read-out: Max Response (%) Compared to Positive Control): 22%
EC50 (α-2A adrenergic receptor; [6]): > 20 µM
Emax ([1]; 1 to 20 μM, read-out: Max Response (%) Compared to Positive Control): 2%
EC50 [1]: > 20 µM
Emax (Dopamine receptor D1; Antagonist, positive control SCH 39166, 1 to 20 μM, read-out: Max Response (%) Compared to Positive Control): 4%
IC50 (Dopamine receptor D1; [7]): > 20 µM
Emax (Histamine H1 receptor; Antagonist, positive control Mepyramine, 1 to 20 μM, read-out: Max Response (%) Compared to Positive Control): 5%
IC50 (Histamine H1 receptor; [8]): > 20 µM
Emax (Histamine H2 receptor; Antagonist, positive control Tiotidine, 1 to 20 μM, read-out: Max Response (%) Compared to Positive Control): 2%
IC50 (Histamine H2 receptor; [9]): > 20 µM
Emax ([2]; Antagonist, positive control Atropine, 1 to 20 μM, read-out: Max Response (%) Compared to Positive Control): 0%
IC50 [2, 10]: > 20 µM

CCCCCCCCCCCCCCC(=O)O[C@H](CC(=O)[O-])C[N+](C)(C)C [Pentadecanoylcarnitine, pentadecanoylcarnitine]
Max Response (%) Compared to Positive Control (Cannabinoid receptor 2; [11]): 106%
EC50 (Cannabinoid receptor 2; [3]): 3.2 µM
Pharmacological activity at cannabinoid receptor 2 (Cannabinoid receptor 2): agonist
Pharmacological activity at cannabinoid receptor 2 (Cannabinoid receptor 2; [12]): fully activates
Max Response (%) Compared to Positive Control (5-HT1B receptor; [13]): 74%
EC50 (5-HT1B receptor; [5]): 9.3 µM
Pharmacological activity at 5-HT1B receptor (5-HT1B receptor; at approximately 1 to 20 μM): agonist
Max Response (%) Compared to Positive Control (Cannabinoid receptor 1; [11]): 111%
EC50 (Cannabinoid receptor 1; [3]): 3.7 µM
Pharmacological activity at cannabinoid receptor 1 (Cannabinoid receptor 1): agonist
Pharmacological activity at cannabinoid receptor 1 (Cannabinoid receptor 1; [12]): fully activates
Max Response (%) Compared to Positive Control (5-HT1A receptor; [13]): 78%
EC50 (5-HT1A receptor; [5]): 9.6 µM
Pharmacological activity at 5-HT1A receptor (5-HT1A receptor; at approximately 1 to 20 μM): agonist
Max Response (%) Compared to Positive Control (α-2A adrenergic receptor; Agonist, positive control UK 14304, 1 to 20 μM): 105%
EC50 (α-2A adrenergic receptor; [6]): 5.9 µM
Pharmacological activity at α-2A adrenergic receptor (α-2A adrenergic receptor; at approximately 1 to 20 μM): agonist
Max Response (%) Compared to Positive Control ([1]; 1 to 20 μM): 206%
EC50 [1]: 3.9 µM
Max Response (%) Compared to Positive Control (Dopamine receptor D1; Antagonist, positive control SCH 39166, 1 to 20 μM): 105%
IC50 (Dopamine receptor D1; [7]): 6.2 µM
Pharmacological activity at dopamine receptor D1 (Dopamine receptor D1; at approximately 1 to 20 μM): antagonist
Max Response (%) Compared to Positive Control (Histamine H1 receptor; Antagonist, positive control Mepyramine, 1 to 20 μM): 71%
IC50 (Histamine H1 receptor; [8]): 10.9 µM
Pharmacological activity at histamine H1 receptor (Histamine H1 receptor; at approximately 1 to 20 μM): antagonist
Max Response (%) Compared to Positive Control (Histamine H2 receptor; Antagonist, positive control Tiotidine, 1 to 20 μM): 98%
IC50 (Histamine H2 receptor; [9]): 6.1 µM
Pharmacological activity at histamine H2 receptor (Histamine H2 receptor; at approximately 1 to 20 μM): antagonist
Max Response (%) Compared to Positive Control ([2]; Antagonist, positive control Atropine, 1 to 20 μM): 77%
IC50 [2, 10]: 10.5 µM
Pharmacological activity at cholinergic receptor muscarinic 1 ([2]; at approximately 1 to 20 μM): antagonist

Reference: patent US12370166B2, “Pentadecanoylcarnitine for treatment of conditions related to the quality of aging and longevity” (EPITRACKER, INC., priority 2021, dated 2025)
